Experimental data published in patent US9182409B2, “Mass spectrometry imaging method for detecting and quantifying a target molecule in a tissue sample” (priority 2011, dated 2015).

Test: Distribution and quantification of propranolol in whole-body mouse sections by MALDI mass spectrometry imaging
Type: in vivo
Settings: 7.5 mg/kg intravenous, 20 minutes post-injection, sagittal whole-body section, TEC-normalized
Protocol: Male Swiss mice weighing 25-40 g (Charles River, France) were used.
The animals were sacrificed by CO2 asphyxiation at 20 minutes post-injection.
The samples (control and dosed tissue) were sectioned into 20 μm-thick layers using a CM1510S cryostat (Leica Microsystems, Nanterre, France) cooled at −26° C. The sections were then deposited on conductive ITO (indium tin oxide) slides (Bruker Daltonics, Bremen, Germany).
This matrix was prepared at a concentration of 40 mg/ml in methanol/0.1% TFA (1:1, v/v). The matrix solution was deposited using the SunCollect spraying system (SunChrome, Germany).
This range of dilutions extends from 10 pmol/μl to 0.02 pmol/μl and includes seven points.
The images were obtained using an AutoFlex Speed MALDI-TOF mass spectrometer (Bruker Daltonics, Bremen, Germany) equipped with a Smartbeam laser. The data was generated in positive reflectron mode. A total of 700 spectra were obtained for each spot with a 1000 Hz laser frequency and a 300×300 μm′ image spatial resolution on a mass range of 100 Da to 1000 Da. The FlexImaging version 2.1 software was used to reconstruct the images.

total quantity of the target analyte in the brain: about 5 ng
SMILES: CC(C)NCC(O)COc1cccc2ccccc12 (stereo not shown) [propranolol, Propranolol]
